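Five compound concentrations were applied to cells in 96-well plates for 48 hours; endpoints were derived by simple linear interpolation of the resulting dose-response curve. Definition used: TGI = concentration required for complete inhibition of growth.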

In the first assay the test system is BT-549 breast. Briefly: NCI anticancer screen, dose series, 48 h.
`CCNC(=O)Cc1nc2c(N)ncnc2n1C1OC(CO)C(O)C1O` (stereo not given) gave a TGI of over 100 µM.
With `COc1ccc(NC(=O)CC(=O)N2N=C(N3c4ccccc4Sc4ccccc43)CC2c2ccccc2)cc1` (stereo not given), the TGI is over 100 µM.
As to `CCOC(=O)C1=C(C)C2C=C(c3cccs3)CC(c3ccc(Cl)cc3)=C2OC1=O` (stereo not given), the TGI was over 100 µM.
Still for that read-out and setting: for `COc1cc(/C=C/C(=O)CC(=O)/C=C/c2ccc(OC(=O)CCCCC3CCSS3)c(OC)c2)ccc1OC(=O)CCCCC1CCSS1` (stereo not given) the value was over 100 µM; for `CC1(C)C2CCC1(C)[C@H](n1c(=O)n([C@@H]3CC4CCC3(C)C4(C)C)c(=O)n([C@@H]3CC4CCC3(C)C4(C)C)c1=O)C2`, over 100 µM.

The test system of a further assay is NCI-H23 lung. Briefly: NCI anticancer screen, dose series, 48 h.
`CCNC(=O)Cc1nc2c(N)ncnc2n1C1OC(CO)C(O)C1O` (stereo not given) showed a TGI of over 100 µM.
Regarding `COc1ccc(NC(=O)CC(=O)N2N=C(N3c4ccccc4Sc4ccccc43)CC2c2ccccc2)cc1` (stereo not given), the TGI is over 100 µM.
Same read-out and setting: for `CCOC(=O)C1=C(C)C2C=C(c3cccs3)CC(c3ccc(Cl)cc3)=C2OC1=O` (stereo not given) the value was over 100 µM.
Still for that read-out and setting: for `COc1cc(/C=C/C(=O)CC(=O)/C=C/c2ccc(OC(=O)CCCCC3CCSS3)c(OC)c2)ccc1OC(=O)CCCCC1CCSS1` (stereo not given) the value was over 100 µM.
The same measure, in the same setting: for `CC1(C)C2CCC1(C)[C@H](n1c(=O)n([C@@H]3CC4CCC3(C)C4(C)C)c(=O)n([C@@H]3CC4CCC3(C)C4(C)C)c1=O)C2` the value was over 100 µM.

The test system of a further assay is OVCAR-4 ovarian. Briefly: NCI anticancer screen, dose series, 48 h.
For the compound `CCNC(=O)Cc1nc2c(N)ncnc2n1C1OC(CO)C(O)C1O` (stereo not given), the TGI is over 100 µM.
The same measure, in the same setting: for `COc1ccc(NC(=O)CC(=O)N2N=C(N3c4ccccc4Sc4ccccc43)CC2c2ccccc2)cc1` (stereo not given) the value was over 100 µM; for `CCOC(=O)C1=C(C)C2C=C(c3cccs3)CC(c3ccc(Cl)cc3)=C2OC1=O` (stereo not given), over 100 µM; for `COc1cc(/C=C/C(=O)CC(=O)/C=C/c2ccc(OC(=O)CCCCC3CCSS3)c(OC)c2)ccc1OC(=O)CCCCC1CCSS1` (stereo not given), over 100 µM.
The compound `CC1(C)C2CCC1(C)[C@H](n1c(=O)n([C@@H]3CC4CCC3(C)C4(C)C)c(=O)n([C@@H]3CC4CCC3(C)C4(C)C)c1=O)C2` registered a TGI of over 100 µM.

A further assay deals with UACC-257 melanoma. Briefly: NCI anticancer screen, dose series, 48 h.
In turn, `CCNC(=O)Cc1nc2c(N)ncnc2n1C1OC(CO)C(O)C1O` (stereo not given) registered a TGI of over 100 µM.
`COc1ccc(NC(=O)CC(=O)N2N=C(N3c4ccccc4Sc4ccccc43)CC2c2ccccc2)cc1` (stereo not given): the TGI is over 100 µM.
Same read-out and setting: for `CCOC(=O)C1=C(C)C2C=C(c3cccs3)CC(c3ccc(Cl)cc3)=C2OC1=O` (stereo not given) the value was over 100 µM.
Compound `COc1cc(/C=C/C(=O)CC(=O)/C=C/c2ccc(OC(=O)CCCCC3CCSS3)c(OC)c2)ccc1OC(=O)CCCCC1CCSS1` (stereo not given) registered a TGI of over 100 µM.
Still for that read-out and setting: for `CC1(C)C2CCC1(C)[C@H](n1c(=O)n([C@@H]3CC4CCC3(C)C4(C)C)c(=O)n([C@@H]3CC4CCC3(C)C4(C)C)c1=O)C2` the value was over 100 µM.

The next assay concerns HOP-62 NSCLC. Briefly: NCI anticancer screen, dose series, 48 h.
In turn, `CCNC(=O)Cc1nc2c(N)ncnc2n1C1OC(CO)C(O)C1O` (stereo not given) displayed a TGI of over 100 µM.
On the same count and under the same terms, for `COc1ccc(NC(=O)CC(=O)N2N=C(N3c4ccccc4Sc4ccccc43)CC2c2ccccc2)cc1` (stereo not given) the value was over 100 µM; for `CCOC(=O)C1=C(C)C2C=C(c3cccs3)CC(c3ccc(Cl)cc3)=C2OC1=O` (stereo not given), over 100 µM.
On the same count and under the same terms, for `COc1cc(/C=C/C(=O)CC(=O)/C=C/c2ccc(OC(=O)CCCCC3CCSS3)c(OC)c2)ccc1OC(=O)CCCCC1CCSS1` (stereo not given) the value was over 100 µM; for `CC1(C)C2CCC1(C)[C@H](n1c(=O)n([C@@H]3CC4CCC3(C)C4(C)C)c(=O)n([C@@H]3CC4CCC3(C)C4(C)C)c1=O)C2`, over 100 µM.

The next assay has as its system HT29 colon. Briefly: NCI anticancer screen, dose series, 48 h.
`CCNC(=O)Cc1nc2c(N)ncnc2n1C1OC(CO)C(O)C1O` (stereo not given) showed a TGI of over 100 µM.
The compound `COc1ccc(NC(=O)CC(=O)N2N=C(N3c4ccccc4Sc4ccccc43)CC2c2ccccc2)cc1` (stereo not given) displayed a TGI of over 100 µM.
Still for that read-out and setting: for `CCOC(=O)C1=C(C)C2C=C(c3cccs3)CC(c3ccc(Cl)cc3)=C2OC1=O` (stereo not given) the value was over 100 µM.
`COc1cc(/C=C/C(=O)CC(=O)/C=C/c2ccc(OC(=O)CCCCC3CCSS3)c(OC)c2)ccc1OC(=O)CCCCC1CCSS1` (stereo not given) gave a TGI of over 100 µM.
The same measure, in the same setting: for `CC1(C)C2CCC1(C)[C@H](n1c(=O)n([C@@H]3CC4CCC3(C)C4(C)C)c(=O)n([C@@H]3CC4CCC3(C)C4(C)C)c1=O)C2` the value was over 100 µM.

In a further assay the test system is NCI-H460 lung. Briefly: NCI anticancer screen, dose series, 48 h.
The compound `CCNC(=O)Cc1nc2c(N)ncnc2n1C1OC(CO)C(O)C1O` (stereo not given) showed a TGI of over 100 µM.
Still for that read-out and setting: for `COc1ccc(NC(=O)CC(=O)N2N=C(N3c4ccccc4Sc4ccccc43)CC2c2ccccc2)cc1` (stereo not given) the value was over 100 µM; for `CCOC(=O)C1=C(C)C2C=C(c3cccs3)CC(c3ccc(Cl)cc3)=C2OC1=O` (stereo not given), over 100 µM; for `COc1cc(/C=C/C(=O)CC(=O)/C=C/c2ccc(OC(=O)CCCCC3CCSS3)c(OC)c2)ccc1OC(=O)CCCCC1CCSS1` (stereo not given), over 100 µM.
The same measure, in the same setting: for `CC1(C)C2CCC1(C)[C@H](n1c(=O)n([C@@H]3CC4CCC3(C)C4(C)C)c(=O)n([C@@H]3CC4CCC3(C)C4(C)C)c1=O)C2` the value was over 100 µM.

Another assay relates to MDA-MB-231 breast. Briefly: NCI anticancer screen, dose series, 48 h.
In the case of `CCNC(=O)Cc1nc2c(N)ncnc2n1C1OC(CO)C(O)C1O` (stereo not given), the TGI is over 100 µM.
`COc1ccc(NC(=O)CC(=O)N2N=C(N3c4ccccc4Sc4ccccc43)CC2c2ccccc2)cc1` (stereo not given) had a TGI of over 100 µM.
For `CCOC(=O)C1=C(C)C2C=C(c3cccs3)CC(c3ccc(Cl)cc3)=C2OC1=O` (stereo not given), the TGI is over 100 µM.
Same read-out and setting: for `COc1cc(/C=C/C(=O)CC(=O)/C=C/c2ccc(OC(=O)CCCCC3CCSS3)c(OC)c2)ccc1OC(=O)CCCCC1CCSS1` (stereo not given) the value was over 100 µM; for `CC1(C)C2CCC1(C)[C@H](n1c(=O)n([C@@H]3CC4CCC3(C)C4(C)C)c(=O)n([C@@H]3CC4CCC3(C)C4(C)C)c1=O)C2`, over 100 µM.

The next assay deals with HS 578T breast. Briefly: NCI anticancer screen, dose series, 48 h.
Regarding `CCNC(=O)Cc1nc2c(N)ncnc2n1C1OC(CO)C(O)C1O` (stereo not given), the TGI was over 100 µM.
For `COc1ccc(NC(=O)CC(=O)N2N=C(N3c4ccccc4Sc4ccccc43)CC2c2ccccc2)cc1` (stereo not given), the TGI worked out at 96.9 µM.
On the same count and under the same terms, for `CCOC(=O)C1=C(C)C2C=C(c3cccs3)CC(c3ccc(Cl)cc3)=C2OC1=O` (stereo not given) the value was over 100 µM; for `COc1cc(/C=C/C(=O)CC(=O)/C=C/c2ccc(OC(=O)CCCCC3CCSS3)c(OC)c2)ccc1OC(=O)CCCCC1CCSS1` (stereo not given), over 100 µM.
The same measure, in the same setting: for `CC1(C)C2CCC1(C)[C@H](n1c(=O)n([C@@H]3CC4CCC3(C)C4(C)C)c(=O)n([C@@H]3CC4CCC3(C)C4(C)C)c1=O)C2` the value was over 100 µM.

The next assay concerns SW-620 colon. Briefly: NCI anticancer screen, dose series, 48 h.
As to `CCNC(=O)Cc1nc2c(N)ncnc2n1C1OC(CO)C(O)C1O` (stereo not given), the TGI is over 100 µM.
Still for that read-out and setting: for `COc1ccc(NC(=O)CC(=O)N2N=C(N3c4ccccc4Sc4ccccc43)CC2c2ccccc2)cc1` (stereo not given) the value was over 100 µM; for `CCOC(=O)C1=C(C)C2C=C(c3cccs3)CC(c3ccc(Cl)cc3)=C2OC1=O` (stereo not given), over 100 µM.
Still for that read-out and setting: for `COc1cc(/C=C/C(=O)CC(=O)/C=C/c2ccc(OC(=O)CCCCC3CCSS3)c(OC)c2)ccc1OC(=O)CCCCC1CCSS1` (stereo not given) the value was over 100 µM.
As to `CC1(C)C2CCC1(C)[C@H](n1c(=O)n([C@@H]3CC4CCC3(C)C4(C)C)c(=O)n([C@@H]3CC4CCC3(C)C4(C)C)c1=O)C2`, the TGI is over 100 µM.

These data come from PubChem BioAssay (NCI).
